Data from ChEMBL document CHEMBL4651402, “Screening of ~5500 FDA-approved drugs and clinical candidates for anti-SARS-CoV-2 activity” (2021).
pIC50: −log10 of the molar value.

Test system: SARS-CoV-2
Assay: microbe, parasite or virus in culture
Conditions: Severe acute respiratory syndrome coronavirus 2, Vero C1008, 48 h; for IC50: read-out: pIC50 (converted)

N/N=c1\[nH][nH]/c(=N\N)c2ccccc12 [DIHYDRALAZINE]
pIC50: < 4.70 | IC50: > 20 µM

O=C(O)CCCC/C=C(/c1ccccc1)c1cccnc1 [ISBOGREL]
pIC50: < 4.70 | IC50: > 20 µM

CC1(C)O[C@@H]2C[C@H]3[C@@H]4CCC5=CC(=O)C=C[C@]5(C)[C@@]4(F)[C@@H](O)C[C@]3(C)[C@]2(C(=O)CO)O1 [TRIAMCINOLONE ACETONIDE]
pIC50: < 4.70 | IC50: > 20 µM

CNCC(O)c1ccc(O)c(OC)c1 (stereo not given) [METANEPHRINE]
pIC50: < 4.70 | IC50: > 20 µM

Cc1scc2c1N(C(=O)CN1CCN(C)CC1)c1ccccc1NC2=O [TELENZEPINE]
pIC50: < 4.70 | IC50: > 20 µM

C/N=C(/NC#N)NCCSCc1csc(NC(=N)N)n1 [TIOTIDINE]
pIC50: < 4.70 | IC50: > 20 µM

CCC[C@H](c1ccc(C(=O)NCCC(=O)O)cc1)[C@@H](c1ccc(Cl)cc1)c1c[nH]c2c(F)cc(C)cc12
pIC50: < 4.70 | IC50: > 20 µM

CC12C=CC(=O)C=C1C(F)CC1C2C(O)CC2(C)C1CCC2(O)C(=O)CO (stereo not given)
pIC50: < 4.70 | IC50: > 20 µM

C#C[C@]1(O)CC[C@H]2[C@@H]3CCC4=CC(=O)CCC4=C3C=C[C@@]21CC [GESTRINONE]
pIC50: < 4.70 | IC50: > 20 µM

CN1C(=O)C(O)N=C(c2ccccc2Cl)c2cc(Cl)ccc21 (stereo not given) [LORMETAZEPAM]
pIC50: < 4.70 | IC50: > 20 µM

CC(C)(C)C(=O)Oc1ccc2c(c1)O[C@@H](c1ccc(OCCN3CCCCC3)cc1)C1=C2COc2cc(OC(=O)C(C)(C)C)ccc21
pIC50: < 4.70 | IC50: > 20 µM

OC(c1ccccc1)(c1ccccc1)C1CCNCC1 [AZACYCLONOL]
pIC50: < 4.70 | IC50: > 20 µM

CC1=C2[C@H]3OC(=O)[C@@H](C)[C@@H]3CC[C@@]2(C)C=CC1=O [SANTONIN]
pIC50: < 4.70 | IC50: > 20 µM

CC12CCC3C(CC=C4CC(O)CCC43C)C1CCC2=O (stereo not given)
pIC50: < 4.70 | IC50: > 20 µM

CN1C2CCC1CC(OC1c3ccccc3CCc3ccccc31)C2 (stereo not given)
pIC50: < 4.70 | IC50: > 20 µM

CN1CCN(c2ccc(OC(F)(F)F)c(Nc3ncc4c(n3)-c3c(c(C(N)=O)nn3CCO)CC4)c2)CC1 [ONVANSERTIB]
pIC50: < 4.70 | IC50: > 20 µM

CCC(C)(C)O [AMYLENE HYDRATE]
pIC50: < 4.70 | IC50: > 20 µM

CCC1(CC)C(=O)C=CNC1=O [PYRITHYLDIONE]
pIC50: < 4.70 | IC50: > 20 µM

CCN(CC)CC#CCOC(=O)[C@](O)(c1ccccc1)C1CCCCC1 [AROXYBUTYNIN]
pIC50: < 4.70 | IC50: > 20 µM

Cc1cn([C@H]2C[C@H](O)[C@@H](CO)O2)c(=O)[nH]c1=O [DOXRIBTIMINE]
pIC50: < 4.70 | IC50: > 20 µM

Cc1occc(=O)c1O [MALTOL]
pIC50: < 4.70 | IC50: > 20 µM

NC(Cc1ccc(O)cc1)C(=O)O (stereo not given)
pIC50: < 4.70 | IC50: > 20 µM

CC(C)=CCC1C(=O)N(c2ccccc2)N(c2ccccc2)C1=O [FEPRAZONE]
pIC50: < 4.70 | IC50: > 20 µM

CCOC(=O)C1=C[C@@H](OC(CC)CC)[C@H](NC(C)=O)[C@@H](N)C1 [OSELTAMIVIR]
pIC50: < 4.70 | IC50: > 20 µM

COC(=O)Nc1nc2cc(SC(C)C)ccc2[nH]1
pIC50: < 4.70 | IC50: > 20 µM

C=C(C)[C@@H]1CC[C@]2(C(=O)O)CC[C@]3(C)[C@H](CCC4[C@@]5(C)CC[C@@H](O)C(C)(C)C5CC[C@]43C)C12 (stereo not given in full)
pIC50: < 4.70 | IC50: > 20 µM

CN(C)CCCC1(c2ccc(F)cc2)OCc2cc(C#N)ccc21 (stereo not given) [CITALOPRAM]
pIC50: < 4.70 | IC50: > 20 µM

CCCCC(CC)CNC(=N)NC(=N)NCCCCCCNC(=N)NC(=N)NCC(CC)CCCC (stereo not given) [ALEXIDINE]
pIC50: < 4.70 | IC50: > 20 µM

CC(CNS(=O)(=O)C(C)C)c1ccc(NC(=O)c2cc(F)cc(F)c2)cc1 (stereo not given)
pIC50: < 4.70 | IC50: > 20 µM

CCOCCOc1ccccc1C(N)=O [ETOSALAMIDE]
pIC50: < 4.70 | IC50: > 20 µM

CCC(=O)O[C@](Cc1ccccc1)(c1ccccc1)[C@H](C)CN(C)C [PROPOXYPHENE]
pIC50: < 4.70 | IC50: > 20 µM

Cc1ccccc1OCC(O)CNCCn1cc(C)c(=O)[nH]c1=O (stereo not given) [PRIMIDOLOL]
pIC50: < 4.70 | IC50: > 20 µM

CNC(C)(C)Cc1ccccc1 [MEPHENTERMINE]
pIC50: < 4.70 | IC50: > 20 µM

C[C@@H]1O[C@@H]1P(=O)(O)O [FOSFOMYCIN]
pIC50: < 4.70 | IC50: > 20 µM

COc1ccc(CC(N)C(=O)NC2C(CO)OC(n3cnc4c(N(C)C)ncnc43)C2O)cc1 (stereo not given)
pIC50: < 4.70 | IC50: > 20 µM

CCN1CCC[C@H]1CNC(=O)c1c(O)c(Cl)cc(Cl)c1OC [RACLOPRIDE]
pIC50: < 4.70 | IC50: > 20 µM

CC(C)COC(=O)c1ccc(N)cc1 [ISOBUTAMBEN]
pIC50: < 4.70 | IC50: > 20 µM

Cc1cc(=O)[nH]c(=S)[nH]1 [METHYLTHIOURACIL]
pIC50: < 4.70 | IC50: > 20 µM

C[14C](C)(c1ccc(O)cc1)c1ccc(O)cc1
pIC50: < 4.70 | IC50: > 20 µM

C=CCC1(C2C=CCCC2)C(=O)NC(=S)NC1=O (stereo not given) [THIALBARBITAL]
pIC50: < 4.70 | IC50: > 20 µM

O=C(NC[C@H](O)CN1CCc2ccccc2C1)c1cc(NC2COC2)ncn1
pIC50: < 4.70 | IC50: > 20 µM

CC(=O)C[C@@H](c1ccccc1)c1c(O)c2ccccc2oc1=O
pIC50: < 4.70 | IC50: > 20 µM

C/C=C/C[C@@H](C)[C@@H](O)[C@H]1C(=O)N[C@@H](CC)C(=O)N(C)[C@H](C)C(=O)N(CC)[C@@H](C(C)C)C(=O)N[C@@H](C(C)C)C(=O)N(C)[C@@H](CC(C)C)C(=O)N[C@@H](C)C(=O)N[C@H](C)C(=O)N(C)[C@@H](CC(C)C)C(=O)N(C)[C@@H](CC(C)C)C(=O)N(C)[C@@H](C(C)C)C(=O)N1C [ALISPORIVIR]
pIC50: < 4.70 | IC50: > 20 µM

O=S(=O)(O)c1ccc2[nH]c(-c3ccccc3)nc2c1 [ENSULIZOLE]
pIC50: < 4.70 | IC50: > 20 µM

CC(=O)Oc1ccc(-c2ccc(F)cc2)cc1C(=O)O [FLUFENISAL]
pIC50: < 4.70 | IC50: > 20 µM

CCCN(CCC)C(=O)C(CCC(=O)O)NC(=O)c1ccccc1 (stereo not given) [PROGLUMIDE]
pIC50: < 4.70 | IC50: > 20 µM

COc1cc(N)c(Cl)cc1C(=O)NC1CN2CCC1CC2 (stereo not given) [ZACOPRIDE]
pIC50: < 4.70 | IC50: > 20 µM

CN1CCN(CCOc2cc(OC3CCOCC3)c3c(Nc4c(Cl)ccc5c4OCO5)ncnc3c2)CC1 [SARACATINIB]
pIC50: < 4.70 | IC50: > 20 µM

Nc1sc2c(c1C(=O)c1ccc(Cl)cc1)CCCC2 [T-62]
pIC50: < 4.70 | IC50: > 20 µM

CC(C)=CCC/C(C)=C/COc1ccc2ccc(=O)oc2c1
pIC50: < 4.70 | IC50: > 20 µM

Nc1cccc2c1CN(C1CCC(=O)NC1=O)C2=O (stereo not given) [LENALIDOMIDE]
pIC50: < 4.70 | IC50: > 20 µM

C=CC1CN2CCC1CC2C(O)c1ccnc2ccccc12 (stereo not given)
pIC50: < 4.70 | IC50: > 20 µM

N[C@H]1CONC1=O [LEVCYCLOSERINE]
pIC50: < 4.70 | IC50: > 20 µM

Cc1csc(Cl)c1NC1=NCCN1 [TIAMENIDINE]
pIC50: < 4.70 | IC50: > 20 µM

CN(C/C=C/C#CC(C)(C)C)Cc1cccc2ccccc12 [TERBINAFINE]
pIC50: < 4.70 | IC50: > 20 µM

OC[C@H]1O[C@@H]2O[C@H]3[C@H](O)[C@@H](O)[C@@H](O[C@H]4[C@H](O)[C@@H](O)[C@@H](O[C@H]5[C@H](O)[C@@H](O)[C@@H](O[C@H]6[C@H](O)[C@@H](O)[C@@H](O[C@H]7[C@H](O)[C@@H](O)[C@@H](O[C@H]8[C@H](O)[C@@H](O)[C@@H](O[C@H]9[C@H](O)[C@@H](O)[C@@H](O[C@H]1[C@H](O)[C@H]2O)O[C@@H]9CO)O[C@@H]8CO)O[C@@H]7CO)O[C@@H]6CO)O[C@@H]5CO)O[C@@H]4CO)O[C@@H]3CO [GAMMA-CYCLODEXTRIN]
pIC50: < 4.70 | IC50: > 20 µM

O=C(O)c1cccnc1C(=O)O [QUINOLINIC ACID]
pIC50: < 4.70 | IC50: > 20 µM

CC(=O)OCC(=O)C1CCC2C3CC=C4CC(O)CCC4(C)C3CCC12C (stereo not given)
pIC50: < 4.70 | IC50: > 20 µM

CC(=O)Oc1cccc2c1C(=O)c1c(OC(C)=O)cc(C(=O)O)cc1C2=O [DIACEREIN]
pIC50: < 4.70 | IC50: > 20 µM

CC1(C)CN2C(=O)c3[nH]cnc3N(Cc3ccc(Cl)cc3)C2=N1
pIC50: < 4.70 | IC50: > 20 µM

CC1=C(O)C(=O)C=C2C1=CC=C1C3(C)CC[C@@]4(C)CC[C@@](C)(C(=O)O)C[C@H]4[C@]3(C)CC[C@@]21C (stereo not given in full)
pIC50: < 4.70 | IC50: > 20 µM

O=C(O)c1ccc(C2CC2c2ccc(OCc3c(-c4c(Cl)cccc4Cl)noc3C3CC3)cc2Cl)cc1 (stereo not given)
pIC50: < 4.70 | IC50: > 20 µM

CNc1ccc(-c2ccc3cc(OC[C@H](O)CF)ccc3n2)cc1
pIC50: < 4.70 | IC50: > 20 µM

CC=CC(=O)N(CC)c1ccccc1C
pIC50: < 4.70 | IC50: > 20 µM

O=c1[nH]c2ccccc2n1C1CCN(CCCC(c2ccc(F)cc2)c2ccc(F)cc2)CC1 [PIMOZIDE]
pIC50: < 4.70 | IC50: > 20 µM

Clc1ccc(C(c2ccccc2Cl)C(Cl)Cl)cc1 (stereo not given) [MITOTANE]
pIC50: < 4.70 | IC50: > 20 µM

NC(=O)c1cc([N+](=O)[O-])cc([N+](=O)[O-])c1 [NITROMIDE]
pIC50: < 4.70 | IC50: > 20 µM

C=C[C@](C)(O)CC[C@H]1C(=C)C[C@H](OC(C)=O)[C@H]2C(C)(C)CCC[C@]12C
pIC50: < 4.70 | IC50: > 20 µM

N#Cc1c[nH]cc1-c1cccc2c1OC(F)(F)O2 [FLUDIOXONIL]
pIC50: < 4.70 | IC50: > 20 µM

Nc1ccc(C(=O)O)c(O)c1 [AMINOSALICYLIC ACID]
pIC50: < 4.70 | IC50: > 20 µM

CN(C)CC/C=C1\c2ccccc2CN(C)c2ccccc21
pIC50: < 4.70 | IC50: > 20 µM

CN(C)CC(c1ccc(O)cc1)C1(O)CCCCC1 (stereo not given) [DESVENLAFAXINE]
pIC50: < 4.70 | IC50: > 20 µM

CC(=O)Nc1cc2ccccc2oc1=O
pIC50: < 4.70 | IC50: > 20 µM

CC(C)C(Br)C(=O)NC(N)=O (stereo not given) [BROMISOVALUM]
pIC50: < 4.70 | IC50: > 20 µM

O=C(Nc1ccc(OC(F)(F)F)cc1)c1sccc1NCc1ccnc2ccccc12 [OSI-930]
pIC50: < 4.70 | IC50: > 20 µM
